The target in the test is human adenosine A2a receptor (Homo sapiens (Human), UniProt P29274). As to the kind of experiment: A2a receptor binding affinity, [3H]-NECA radioligand binding test. To be noted: [3H]-NECA 37 nM; membrane from HEK-293 cells transfected with human adenosine A2a receptor. On the procedure:
The binding affinity of the compounds according to Examples of the present invention to the human adenosine A2a receptor was evaluated by entrusting SB drug discovery in the UK.
A radioligand binding test was conducted by using [3H]-NECA (5′-N-[adenine-2,8-3H]-ethylcarboxamidoadenosine) and an adenosine A2a membrane. As the adenosine A2a membrane, a cell membrane prepared from HEK-293 cells transfected with human adenosine A2a receptor was used. The membrane used for the test was prepared by incubating with a radioligand until equilibrium was reached. In order to separate the radioligand-bound membrane, the unbound radioligand was separated by using Packard filtermate Harverster and glass filter plates.
10 μL of test compound dissolved in binding buffer (50 mM Tris, 10 mM MgCl2, 1 mM EDTA pH 7.4) and 20 μL of [3H]-NECA (final concentration of 37 nM) or reference inhibitor was mixed with 20 μL of A2a membrane in an unbound 96-well plate and incubated at room temperature for one hour. Prior to filtration, a 96-well harvest filter plate was coated with 0.33% polyethylenimine for 30 minutes and then washed with assay buffer. The binding reaction was transferred to the filter plate and washed three times with wash buffer. The dish was then dried, scintillant was added, and radioactivity was counted in a scintillation counter (Topcount NXT, Packard).
The binding affinity IC50 (μM) for the human adenosine A2a receptor obtained according to the above experimental method is shown in the table below.
human adenosine A2a receptor, sequence (P29274 whole entry): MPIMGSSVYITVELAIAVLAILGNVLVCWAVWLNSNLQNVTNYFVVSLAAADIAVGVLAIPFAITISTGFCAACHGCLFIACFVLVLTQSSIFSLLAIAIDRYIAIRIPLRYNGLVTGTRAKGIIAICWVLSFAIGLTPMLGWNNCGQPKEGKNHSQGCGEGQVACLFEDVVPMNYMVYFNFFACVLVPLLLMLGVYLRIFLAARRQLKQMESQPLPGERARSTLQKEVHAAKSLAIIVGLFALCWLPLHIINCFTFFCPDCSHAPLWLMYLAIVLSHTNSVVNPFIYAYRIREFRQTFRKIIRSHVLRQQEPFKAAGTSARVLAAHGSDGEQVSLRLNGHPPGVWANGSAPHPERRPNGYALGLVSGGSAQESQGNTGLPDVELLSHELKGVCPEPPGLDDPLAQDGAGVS
The compound `Nc1nc(N[C@@H](Cc2ccccc2)C(=O)N2CCC(Cc3ccccc3)CC2)nc2nc(-c3ccco3)nn12` [Example 2] showed an IC50 of 1 nM.
For `Nc1nc(N[C@@H](Cc2ccccc2)C(=O)N2CCC(COc3ccccc3)CC2)nc2nc(-c3ccco3)nn12` [Example 3, (S)-2-((7-amino-2-(furan-2-yl)-[1,2,4]triazolo[1,5-a][1,3,5]triazin-5-yl)amino)-1-(4-(phenoxymethyl)piperidin-1-yl)-3-phenylpropan-1-one], the 50% inhibitory concentration (IC50) came to 1 nM. This lies in the single-digit nanomolar range.
Compound `Nc1nc(N[C@@H](Cc2ccccc2)C(=O)N2CCN(CC(F)(F)F)CC2)nc2nc(-c3ccco3)nn12` [Example 4] came in with an IC50 of 0.458 nM. This IC50 is about 2.2-fold lower than that of the compound before.
Turning to `CC(C)C(=O)N1CCN(C(=O)[C@H](Cc2ccccc2)Nc2nc(N)n3nc(-c4ccco4)nc3n2)CC1` [Example 5, (S)-2-((7-amino-2-(furan-2-yl)-[1,2,4]triazolo[1,5-a][1,3,5]triazin-5-yl)amino)-1-(4-isobutyrylpiperazin-1-yl)-3-phenylpropan-1-one], the half-inhibitory concentration (IC50) came to 1.26 nM.
`Nc1nc(N[C@@H](Cc2ccccc2)C(=O)N2CCN(S(=O)(=O)c3ccccc3)CC2)nc2nc(-c3ccco3)nn12` [Example 6, (S)-2-((7-amino-2-(furan-2-yl)-[1,2,4]triazolo[1,5-a][1,3,5]triazin-5-yl)amino)-3-phenyl-1-(4-(phenylsulfonyl)piperazin-1-yl)propan-1-one] registered an IC50 of 0.214 nM.
Under `Nc1nc(N[C@H](C(=O)N2CCN(c3ccc(F)cc3F)CC2)c2ccccc2)nc2nc(-c3ccco3)nn12` [Example 7, (S)-2-((7-amino-2-(furan-2-yl)-[1,2,4]triazolo[1,5-a][1,3,5]triazin-5-yl)amino)-1-(4-(2,4-difluorophenyl)piperazin-1-yl)-2-phenylethan-1-one] stands 6.72 nM; under `Nc1nc(N[C@@H](CO)C(=O)N2CCN(c3ccc(F)cc3F)CC2)nc2nc(-c3ccco3)nn12` [Example 8, (S)-2-((7-amino-2-(furan-2-yl)-[1,2,4]triazolo[1,5-a][1,3,5]triazin-5-yl)amino)-1-(4-(2,4-difluorophenyl)piperazin-1-yl)-3-hydroxypropan-1-one], 1.92 nM; under `C[C@H](Nc1nc(N)n2nc(-c3ccco3)nc2n1)C(=O)N1CCN(c2ccc(F)cc2F)CC1` [Example 9, (S)-2-((7-amino-2-(furan-2-yl)-[1,2,4]triazolo[1,5-a][1,3,5]triazin-5-yl)amino)-1-(4-(2,4-difluorophenyl)piperazin-1-yl)propan-1-one], 2.42 nM.
Take `CC(C)[C@H](Nc1nc(N)n2nc(-c3ccco3)nc2n1)C(=O)N1CCN(c2ccc(F)cc2F)CC1` [Example 10, (S)-2-((7-amino-2-(furan-2-yl)-[1,2,4]triazolo[1,5-a][1,3,5]triazin-5-yl)amino)-1-(4-(2,4-difluorophenyl)piperazin-1-yl)-3-methylbutan-1-one]: the IC50 was 0.357 nM.
Regarding `Nc1nc(N[C@H](C(=O)N2CCN(c3ccc(F)cc3F)CC2)C2CCCCC2)nc2nc(-c3ccco3)nn12` [Example 11, (S)-2-((7-amino-2-(furan-2-yl)-[1,2,4]triazolo[1,5-a][1,3,5]triazin-5-yl)amino)-2-cyclohexyl-1-(4-(2,4-difluorophenyl)piperazin-1-yl)ethan-1-one], the IC50 was 0.1 nM.
For the compound `Nc1nc(N2CCC[C@H]2C(=O)N2CCN(c3ccc(F)cc3F)CC2)nc2nc(-c3ccco3)nn12` [Example 12, (S)-(1-(7-amino-2-(furan-2-yl)-[1,2,4]triazolo[1,5-a][1,3,5]triazin-5-yl)pyrrolidin-2-yl)(4-(2,4-difluorophenyl)piperazin-1-yl)methanone], the IC50 amounted to 1.43 nM.
As to `Nc1nc(N[C@@H](Cc2ccccc2)C(=O)N2CCN(Cc3ccc(F)cc3F)CC2)nc2nc(-c3ccco3)nn12` [Example 13, (S)-2-((7-amino-2-(furan-2-yl)-[1,2,4]triazolo[1,5-a][1,3,5]triazin-5-yl)amino)-1-(4-(2,4-difluorobenzyl)piperazin-1-yl)-3-phenylpropan-1-one], the IC50 came out at 0.1 nM.
Take `Nc1nc(N[C@H](C(=O)N2CCN(Cc3ccc(F)cc3F)CC2)c2ccccc2)nc2nc(-c3ccco3)nn12` [Example 14, (S)-2-((7-amino-2-(furan-2-yl)-[1,2,4]triazolo[1,5-a][1,3,5]triazin-5-yl)amino)-1-(4-(2,4-difluorobenzyl)piperazin-1-yl)-2-phenylethan-1-one]: the IC50 was 0.368 nM. This IC50 is about 3.7-fold higher than that of the compound before.
Regarding `Nc1nc(NCC(=O)N2CCN(Cc3ccc(F)cc3F)CC2)nc2nc(-c3ccco3)nn12` [Example 15, 2-((7-amino-2-(furan-2-yl)-[1,2,4]triazolo[1,5-a][1,3,5]triazin-5-yl)amino)-1-(4-(2,4-difluorobenzyl)piperazin-1-yl)ethan-1-one], the 50% inhibitory concentration (IC50) amounted to 6.02 nM.
Consider `Nc1nc(N2CCC[C@H]2C(=O)N2CCN(Cc3ccc(F)cc3F)CC2)nc2nc(-c3ccco3)nn12` [Example 16, (S)-(1-(7-amino-2-(furan-2-yl)-[1,2,4]triazolo[1,5-a][1,3,5]triazin-5-yl)pyrrolidin-2-yl)(4-(2,4-difluorobenzyl)piperazin-1-yl)methanone], for which the IC50 came to 1.95 nM.
Regarding `Nc1nc(N[C@@H](Cc2ccccc2)C(=O)N2CCN(Cc3cccc(F)c3)CC2)nc2nc(-c3ccco3)nn12` [Example 17, (S)-2-((7-amino-2-(furan-2-yl)-[1,2,4]triazolo[1,5-a][1,3,5]triazin-5-yl)amino)-1-(4-(3-fluorobenzyl)piperazin-1-yl)-3-phenylpropan-1-one], the IC50 was found to be 0.135 nM.
As for `Nc1nc(N[C@@H](Cc2ccccc2)C(=O)N2CCN(Cc3ccc(F)cc3)CC2)nc2nc(-c3ccco3)nn12` [Example 18, (S)-2-((7-amino-2-(furan-2-yl)-[1,2,4]triazolo[1,5-a][1,3,5]triazin-5-yl)amino)-1-(4-(4-fluorobenzyl)piperazin-1-yl)-3-phenylpropan-1-one], the figure is 0.125 nM; as for `Nc1nc(N[C@@H](Cc2ccccc2)C(=O)N2CCC(N3CCOCC3)CC2)nc2nc(-c3ccco3)nn12` [Example 19, (S)-2-((7-amino-2-(furan-2-yl)-[1,2,4]triazolo[1,5-a][1,3,5]triazin-5-yl)amino)-1-(4-morpholinopiperidin-1-yl)-3-phenylpropan-1-one], 15 nM.
As for `Nc1nc(N[C@@H](Cc2ccccc2)C(=O)N2CCCN(Cc3ccccc3)CC2)nc2nc(-c3ccco3)nn12` [Example 20, (S)-2-((7-amino-2-(furan-2-yl)-[1,2,4]triazolo[1,5-a][1,3,5]triazin-5-yl)amino)-1-(4-benzyl-1,4-diazepan-1-yl)-3-phenylpropan-1-one], the figure is 20 nM; as for `C[C@H](Nc1nc(N)n2nc(-c3ccco3)nc2n1)C(=O)N1CCN(Cc2ccccc2)CC1` [Example 21, (S)-2-((7-amino-2-(furan-2-yl)-[1,2,4]triazolo[1,5-a][1,3,5]triazin-5-yl)amino)-1-(4-benzylpiperazin-1-yl)propan-1-one], 30 nM; as for `C[C@H](Nc1nc(N)n2nc(-c3ccco3)nc2n1)C(=O)N1CCN(Cc2ccccc2F)CC1` [Example 22, (S)-2-((7-amino-2-(furan-2-yl)-[1,2,4]triazolo[1,5-a][1,3,5]triazin-5-yl)amino)-1-(4-(2-fluorobenzyl)piperazin-1-yl)propan-1-one], 11 nM.
Under `C[C@H](Nc1nc(N)n2nc(-c3ccco3)nc2n1)C(=O)N1CCN(Cc2ccc(F)cc2)CC1` [Example 23, (S)-2-((7-amino-2-(furan-2-yl)-[1,2,4]triazolo[1,5-a][1,3,5]triazin-5-yl)amino)-1-(4-(4-fluorobenzyl)piperazin-1-yl)propan-1-one] stands 61 nM; under `COc1cccc(CN2CCN(C(=O)[C@H](C)Nc3nc(N)n4nc(-c5ccco5)nc4n3)CC2)c1` [Example 24, (S)-2-((7-amino-2-(furan-2-yl)-[1,2,4]triazolo[1,5-a][1,3,5]triazin-5-yl)amino)-1-(4-(3-methoxybenzyl)piperazin-1-yl)propan-1-one], 33 nM; under `C[C@H](Nc1nc(N)n2nc(-c3ccco3)nc2n1)C(=O)N1CCN(CC(F)(F)F)CC1` [Example 25, (S)-2-((7-amino-2-(furan-2-yl)-[1,2,4]triazolo[1,5-a][1,3,5]triazin-5-yl)amino)-1-(4-(2,2,2-trifluoroethyl)piperazin-1-yl)propan-1-one], 10 nM.
Compound `CC(C)(F)CN1CCN(C(=O)[C@@H]2CCCN2c2nc(N)n3nc(-c4ccco4)nc3n2)CC1` [Example 26, (S)-(1-(7-amino-2-(furan-2-yl)-[1,2,4]triazolo[1,5-a][1,3,5]triazin-5-yl)pyrrolidin-2-yl)(4-(2-fluoro-2-methylpropyl)piperazin-1-yl)methanone] registered an IC50 of 4 nM.
For `Nc1nc(N2CCC[C@H]2C(=O)N2CCN(Cc3ccccc3)CC2)nc2nc(-c3ccco3)nn12` [Example 27, (S)-(1-(7-amino-2-(furan-2-yl)-[1,2,4]triazolo[1,5-a][1,3,5]triazin-5-yl)pyrrolidin-2-yl)(4-benzylpiperazin-1-yl)methanone], the IC50 amounted to 7 nM.

For the origin of these results see US20240217978A1 (CHONG KUN DANG PHARMACEUTICAL CORP., priority 2021, published 2024).
